The record followed here is patent US8835440B2, “Cyclic pyrimidin-4-carboxamides as CCR2 receptor antagonists for treatment of inflammation, asthma and COPD” (Boehringer Ingelheim International GmbH, priority 2008, dated 2014).

As a reminder, the Ki is the equilibrium dissociation constant of an inhibitor or competing ligand from its target. A low value points to a stronger hold on the target.

One assay has as its target T1, CCR2 (Homo sapiens, UniProt P41597).
T1 construct: Membranes were prepared from THP-1 cells; endogenous in cells; host or cells: THP-1 cells (membrane preparation)
T1 sequence (P41597 1-360 isoform P41597-2): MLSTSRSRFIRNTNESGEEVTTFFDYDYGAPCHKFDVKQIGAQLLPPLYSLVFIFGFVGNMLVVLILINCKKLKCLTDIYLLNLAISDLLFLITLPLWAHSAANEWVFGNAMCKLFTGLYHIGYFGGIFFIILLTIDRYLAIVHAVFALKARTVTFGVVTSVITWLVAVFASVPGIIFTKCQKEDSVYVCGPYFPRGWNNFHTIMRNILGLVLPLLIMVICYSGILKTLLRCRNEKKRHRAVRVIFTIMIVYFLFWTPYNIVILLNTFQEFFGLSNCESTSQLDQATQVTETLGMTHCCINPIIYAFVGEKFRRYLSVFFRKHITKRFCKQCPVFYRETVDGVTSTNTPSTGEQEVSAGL
Kind of assay: CCR2 receptor membrane binding assay ([125I]MCP-1, THP-1 cell membranes, SPA beads). The following applies: @ 10 μM test compound; THP-1 membranes; read-out: CCR2 % ctrl @ 10 μM. In short, it runs like this:
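hKi was derived by iterative law-of-mass-action fitting of scintillation counts read at 8 h. Compound (1% DMSO final) competed with ca. 25000 cpm [125I]MCP-1 for THP-1 membranes bound to WGA-PVT beads. Buffer: 25 mM HEPES pH 7.2, 5 mM MgCl2, 0.5 mM CaCl2, 0.2% BSA.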
Turning to `COC1CC(F)(F)CCC1NC1CCN(C(=O)c2ncnc(NCc3ccc(C(C)(C)C)cc3)c2C)CC1` (stereo not drawn) [Example 228g], the remaining activity at 10 µM stood at 6%. Regarding `COC1COCCC1N(C)C1CCN(C(=O)c2ncnc(NCC3CCC[C@@H](c4ccccc4)C3)c2C)CC1` (stereo partly drawn) [Example 228h], the remaining activity at 10 µM stood at 0%. The same measure, in the same setting: in the case of `Cc1c(NCCc2ccc(Cl)c(Cl)c2)ncnc1C(=O)N1CCC(N2CCC[C@H](O)C2)CC1` [Example 229] it was 39%. Same read-out and setting: the result for `CC(=O)N1CCN(C2CCN(C(=O)c3ncnc(NCCc4ccc(Cl)c(Cl)c4)c3C)CC2)CC1` [Example 230] reads 45%; that for `Cc1c(NCCc2ccc(Cl)c(Cl)c2)ncnc1C(=O)N1CCC(N2CCC[C@@H](O)C2)CC1` [Example 231], 15%. On the same count and under the same terms, in the case of `Cc1c(NCCc2ccc(Cl)c(Cl)c2)ncnc1C(=O)N1CCC(N2CC[C@@H](C(N)=O)C2)CC1` [Example 232] it was 34%. For `Cc1c(NCc2ccc(Cl)c(Cl)c2)ncnc1C(=O)N1CCC(N2CCCC(F)C2)CC1` (stereo not drawn) [Example 233], the remaining activity at 10 µM came to 8%.

With `Cc1c(NCc2cccc(-c3ccccc3)c2)ncnc1C(=O)N1CCC(N2CCOC(C)C2)CC1` (stereo not drawn) [Example 234], the remaining activity at 10 µM worked out at 19%.

On to `Cc1c(NCc2ccc(Cl)c(Cl)c2)ncnc1C(=O)N1CCC(N2CCCCCC2)CC1` [Example 235], for which the remaining activity at 10 µM came out at 26%. On to `Cc1c(NCc2cccc(-c3ccccc3)c2)ncnc1C(=O)N1CCC(N2CCC(N(C)C)CC2)CC1` [Example 236], for which the remaining activity at 10 µM amounted to 14%.

With `Cc1c(NCCc2ccc(Cl)c(Cl)c2)ncnc1C(=O)N1CCC(N2CCOC(C)C2)CC1` (stereo not drawn) [Example 237], the remaining activity at 10 µM came to 9%. Still for that read-out and setting: in the case of `Cc1c(NCc2ccc(Cl)c(Cl)c2)ncnc1C(=O)N1CCC(N2CCC(O)C2)CC1` (stereo not drawn) [Example 238] it was 14%; in that of `Cc1c(NCc2cccc(-c3ccccc3)c2)ncnc1C(=O)N1CCC(N2CCC(O)C2)CC1` (stereo not drawn) [Example 239], 33%.

For the compound `Cc1c(NCCc2ccc(Cl)c(Cl)c2)ncnc1C(=O)N1CCC(N2CCOC(c3ccccc3)C2)CC1` (stereo not drawn) [Example 240], the remaining activity at 10 µM worked out at 7%. The same measure, in the same setting: in the case of `Cc1c(NCCc2ccc(Cl)c(Cl)c2)ncnc1C(=O)N1CCC(N2CCC(O)C2)CC1` (stereo not drawn) [Example 241] it was 21%; in that of `Cc1c(NCc2ccc(Cl)c(Cl)c2)ncnc1C(=O)N1CCC(N2CCCOCC2)CC1` [Example 242], 21%. The same measure, in the same setting: the result for `Cc1c(NCc2cccc(-c3ccccc3)c2)ncnc1C(=O)N1CCC(N2CCCOCC2)CC1` [Example 243] reads 40%. Same read-out and setting: the result for `Cc1c(NCc2ccc(Cl)c(Cl)c2)ncnc1C(=O)N1CCC(N2CCC(F)(F)CC2)CC1` [Example 244] reads 24%; that for `Cc1c(NCc2ccc(Cl)c(Cl)c2)ncnc1C(=O)N1CCC(N2CCCC(O)CC2)CC1` (stereo not drawn) [Example 245], 15%. Take `Cc1c(NCCc2ccc(Cl)c(Cl)c2)ncnc1C(=O)N1CCC(N2CC[C@@H](O)[C@@H](O)C2)CC1` [Example 246]: the remaining activity at 10 µM stood at 2%. As to `Cc1c(NCCc2ccc(Cl)c(Cl)c2)ncnc1C(=O)N1CCC(N2CCCC(O)CC2)CC1` (stereo not drawn) [Example 247], the remaining activity at 10 µM was 6%.

Consider `CNC(=O)C1CCN(C2CCN(C(=O)c3nc(C)nc(NCc4ccc(C(C)(C)C)cc4)c3C)CC2)CC1` [Example 248], for which the remaining activity at 10 µM amounted to 17%. Still for that read-out and setting: the result for `CN(C1CCN(C2CCN(C(=O)c3ncnc(NCc4ccc(C(C)(C)C)cc4)c3C#N)CC2)CC1)S(C)(=O)=O` [Example 249] reads 36%; that for `Cc1c(NCc2ccc(C(C)(C)C)cc2)ncnc1C(=O)N1CCC(N2CCCCC2)C1` (stereo not drawn) [Example 250], 32%; that for `Cc1c(NCc2ccc(C(C)(C)C)cc2)ncnc1C(=O)N1CCC(N2CCCC2)C1` (stereo not drawn) [Example 251], 75%. The same measure, in the same setting: the result for `Cc1c(NCCc2ccc(Cl)c(Cl)c2)ncnc1C(=O)N1CCC(C(N)=O)(N2CCCCC2)CC1` [Example 252] reads 6%.

Staying with this assay, now noted: dissociation constant hKi; [125I]MCP-1 binding to THP-1 membranes.
In the case of `COC1CC(F)(F)CCC1NC1CCN(C(=O)c2ncnc(NCc3ccc(C(C)(C)C)cc3)c2C)CC1` (stereo not drawn) [Example 228g], affinity was put at a Ki of 0.169 µM. Same read-out and setting: the result for `CO[C@@H]1COCC[C@@H]1NC1CCN(C(=O)c2ncnc(NCc3ccc(C(C)(C)C)cc3)c2C)CC1` [Example 228ga] reads 0.023 µM. Consider `CC(=O)N1CCC[C@@H](NC2CCN(C(=O)c3ncnc(NCc4ccc(C(C)(C)C)cc4)c3C)CC2)C1` [Example 228gc], for which the affinity, expressed as Ki, was 0.561 µM.

Compound `Cc1c(NCc2ccc(C(C)(C)C)cc2)ncnc1C(=O)N1CCC(N[C@@H]2CCCN(S(C)(=O)=O)C2)CC1` [Example 228gd] had an inhibition constant (Ki) of 1.09 µM. On the same count and under the same terms, the result for `Cc1c(NCc2ccc(C(C)(C)C)cc2)ncnc1C(=O)N1CCC(N2CCC(COc3ccccc3)C2)CC1` (stereo not drawn) [Example 228ge] reads 0.037 µM; that for `Cc1c(NCc2ccc(C(C)(C)C)cc2)ncnc1C(=O)N1CCC(N2CCC(Cc3cccnc3)C2)CC1` (stereo not drawn) [Example 228gf], 0.145 µM; that for `Cc1c(NCc2ccc(C(C)(C)C)cc2)ncnc1C(=O)N1CCC(N2CCc3ncc(C(F)(F)F)cc3C2)CC1` [Example 228gg], 1.03 µM. Same read-out and setting: in the case of `Cc1c(NCc2ccc(C(C)(C)C)cc2)ncnc1C(=O)N1CCC(NCC2CCCCO2)CC1` (stereo not drawn) [Example 228gh] it was 4.07 µM; in that of `Cc1c(NCc2ccc(C(C)(C)C)cc2)ncnc1C(=O)N1CCC(NC2CCOc3cccnc32)CC1` (stereo not drawn) [Example 228gi], 1.1 µM. The same measure, in the same setting: the result for `Cc1c(NCc2ccc(C(C)(C)C)cc2)ncnc1C(=O)N1CCC(N2CCC3(CC2)CNC(=O)O3)CC1` [Example 228gj] reads 0.055 µM. `Cc1c(NCc2ccc(C(C)(C)C)cc2)ncnc1C(=O)N1CCC(N2CCC(c3ccc(C#N)cc3)CC2)CC1` [Example 228gk] came in with an inhibition constant (Ki) of 0.044 µM.

Consider `Cc1c(NCc2ccc(C(C)(C)C)cc2)ncnc1C(=O)N1CCC(N2CCC(Cc3ccc(F)c(F)c3)CC2)CC1` [Example 228gl], for which the Ki turned out to be 0.537 µM. On to `Cc1c(NCc2ccc(C(C)(C)C)cc2)ncnc1C(=O)N1CCC(N2C3CCC2CC(O)C3)CC1` (stereo not drawn) [Example 228gm], for which the inhibition constant Ki amounted to 0.028 µM. On the same count and under the same terms, the result for `CO[C@@H]1COCC[C@H]1NC1CCN(C(=O)c2ncnc(NCc3ccc(C(C)(C)C)cc3)c2C)CC1` [Example 228gn] reads 0.333 µM. Same read-out and setting: the result for `Cc1c(NCc2ccc(C(C)(C)C)cc2)ncnc1C(=O)N1CCC(NC2CCOCC2n2ncnn2)CC1` (stereo not drawn) [Example 228gp] reads 1.35 µM; that for `COC1COCCC1N(C)C1CCN(C(=O)c2ncnc(NCC3CCC[C@@H](c4ccccc4)C3)c2C)CC1` (stereo partly drawn) [Example 228h], 0.005 µM; that for `CO[C@@H]1COCC[C@@H]1N(C)C1CCN(C(=O)c2ncnc(NCc3ccc(C(C)(C)C)cc3)c2C)CC1` [Example 228ha], 0.032 µM. Turning to `Cc1c(NCCc2ccc(Cl)c(Cl)c2)ncnc1C(=O)N1CCC(N2CCC[C@H](O)C2)CC1` [Example 229], the Ki came out at 1.13 µM. The same measure, in the same setting: in the case of `CC(=O)N1CCN(C2CCN(C(=O)c3ncnc(NCCc4ccc(Cl)c(Cl)c4)c3C)CC2)CC1` [Example 230] it was 1.84 µM; in that of `Cc1c(NCCc2ccc(Cl)c(Cl)c2)ncnc1C(=O)N1CCC(N2CCC[C@@H](O)C2)CC1` [Example 231], 0.215 µM; in that of `Cc1c(NCCc2ccc(Cl)c(Cl)c2)ncnc1C(=O)N1CCC(N2CC[C@@H](C(N)=O)C2)CC1` [Example 232], 0.924 µM. Same read-out and setting: in the case of `Cc1c(NCc2ccc(Cl)c(Cl)c2)ncnc1C(=O)N1CCC(N2CCCC(F)C2)CC1` (stereo not drawn) [Example 233] it was 0.194 µM; in that of `Cc1c(NCc2cccc(-c3ccccc3)c2)ncnc1C(=O)N1CCC(N2CCOC(C)C2)CC1` (stereo not drawn) [Example 234], 0.401 µM; in that of `Cc1c(NCc2ccc(Cl)c(Cl)c2)ncnc1C(=O)N1CCC(N2CCCCCC2)CC1` [Example 235], 0.46 µM.

Compound `Cc1c(NCc2cccc(-c3ccccc3)c2)ncnc1C(=O)N1CCC(N2CCC(N(C)C)CC2)CC1` [Example 236] came in with a Ki of 0.175 µM.

The compound `Cc1c(NCCc2ccc(Cl)c(Cl)c2)ncnc1C(=O)N1CCC(N2CCOC(C)C2)CC1` (stereo not drawn) [Example 237] displayed a Ki of 0.133 µM. Same read-out and setting: in the case of `Cc1c(NCc2ccc(Cl)c(Cl)c2)ncnc1C(=O)N1CCC(N2CCC(O)C2)CC1` (stereo not drawn) [Example 238] it was 0.239 µM. For `Cc1c(NCc2cccc(-c3ccccc3)c2)ncnc1C(=O)N1CCC(N2CCC(O)C2)CC1` (stereo not drawn) [Example 239], the Ki came to 2.32 µM. Compound `Cc1c(NCCc2ccc(Cl)c(Cl)c2)ncnc1C(=O)N1CCC(N2CCOC(c3ccccc3)C2)CC1` (stereo not drawn) [Example 240] registered a Ki of 0.104 µM. The same measure, in the same setting: the result for `Cc1c(NCCc2ccc(Cl)c(Cl)c2)ncnc1C(=O)N1CCC(N2CCC(O)C2)CC1` (stereo not drawn) [Example 241] reads 0.522 µM. Still for that read-out and setting: in the case of `Cc1c(NCc2ccc(Cl)c(Cl)c2)ncnc1C(=O)N1CCC(N2CCCOCC2)CC1` [Example 242] it was 0.516 µM.

Compound `Cc1c(NCc2cccc(-c3ccccc3)c2)ncnc1C(=O)N1CCC(N2CCCOCC2)CC1` [Example 243] displayed a Ki of 1.61 µM. The same measure, in the same setting: in the case of `Cc1c(NCc2ccc(Cl)c(Cl)c2)ncnc1C(=O)N1CCC(N2CCC(F)(F)CC2)CC1` [Example 244] it was 0.366 µM. Turning to `Cc1c(NCc2ccc(Cl)c(Cl)c2)ncnc1C(=O)N1CCC(N2CCCC(O)CC2)CC1` (stereo not drawn) [Example 245], the affinity corresponds to a Ki of 0.555 µM. Same read-out and setting: in the case of `Cc1c(NCCc2ccc(Cl)c(Cl)c2)ncnc1C(=O)N1CCC(N2CC[C@@H](O)[C@@H](O)C2)CC1` [Example 246] it was 0.306 µM; in that of `Cc1c(NCCc2ccc(Cl)c(Cl)c2)ncnc1C(=O)N1CCC(N2CCCC(O)CC2)CC1` (stereo not drawn) [Example 247], 0.149 µM; in that of `CN(C1CCN(C2CCN(C(=O)c3ncnc(NCc4ccc(C(C)(C)C)cc4)c3C#N)CC2)CC1)S(C)(=O)=O` [Example 249], 3.25 µM. Same read-out and setting: the result for `Cc1c(NCc2ccc(C(C)(C)C)cc2)ncnc1C(=O)N1CCC(N2CCCCC2)C1` (stereo not drawn) [Example 250] reads 1.26 µM; that for `Cc1c(NCc2ccc(C(C)(C)C)cc2)ncnc1C(=O)N1CCC(N2CCCC2)C1` (stereo not drawn) [Example 251], 0.439 µM; that for `Cc1c(NCCc2ccc(Cl)c(Cl)c2)ncnc1C(=O)N1CCC(C(N)=O)(N2CCCCC2)CC1` [Example 252], 0.038 µM.
